Measured values reported in US20100173972A1, “METHODS AND USES RELATED TO RHBDL4” (MEDICAL RESEARCH COUNCIL, priority 2007, published 2010).
Entries after “also recorded” stand apart in the source; their conditions may differ.

T1: mouse RHBDL4 (Mus musculus, UniProt Q8BHC7)
T1 sequence (Q8BHC7 1-315): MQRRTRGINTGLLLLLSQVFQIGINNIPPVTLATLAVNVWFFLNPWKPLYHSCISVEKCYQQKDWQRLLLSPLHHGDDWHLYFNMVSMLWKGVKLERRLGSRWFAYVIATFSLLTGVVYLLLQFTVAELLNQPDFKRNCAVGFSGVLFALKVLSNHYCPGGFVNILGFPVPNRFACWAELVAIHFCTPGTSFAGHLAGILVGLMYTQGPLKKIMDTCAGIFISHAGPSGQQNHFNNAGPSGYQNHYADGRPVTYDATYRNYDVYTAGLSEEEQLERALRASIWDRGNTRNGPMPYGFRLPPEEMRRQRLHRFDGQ


Key:
[1] = tested on: TGFalpha release, HEK293T cells; test: Time course after PMA induction of HEK293T cells overexpressing pro-TGFalpha, with protease inhibitors; type: cell-based, human; details: DCI 100 μM; HEK293T; Bcl-XL co-expressed
Method: Cell culture and cell-based rhomboid cleavage assay. Cells were propagated in DMEM supplemented with 10% fetal calf serum. COS-7 cells were transfected in 35 mm wells with FuGENE 6 (Roche) as described (7). In brief, 250 ng plasmid encoding the substrate (as indicated in the description of the figures), 25 ng for the rhomboid tested, 50 ng for the GRP receptor and empty plasmid to bring the total DNA to 1 μg was used. For protease titration, 2.5 ng to 250 ng plasmid coding RHBDL4 was used. HeLa and HEK293T were transfected with polyethyleneimine (linear, MW 25000; Polysciences) as described (32) using twice the amount of DNA as used with FuGENE. Transfection efficiency was monitored by co-transfection of pEGFP (Invitrogen). Sixteen hours post transfection, medium was replaced with serum-free medium containing 10 μM BB94 (British Biotech) unless otherwise stated. For activation of endogenous rhomboid activity, phorbol 12-myristate 13-acetate (PMA) (1 μM, from Sigma) or bombesin (100 nM, from Sigma) was added to the cell medium. For inhibitor studies, the indicated protease inhibitors (from Calbiochem), diluted from a stock solution in DMSO, were compared with a carrier only. Medium was harvested typically after 24 to 30 hours; for inhibitor studies using 3,4-Dichloroisocoumarin (DCI) a time course with 0 minutes, 30 minutes and 4 hours was performed (FIG. 4C). Cells were solubilized in SDS-sample buffer and analyzed by SDS-PAGE. EndoH (New England Biolabs) and PNGaseF (New England Biolabs) treatment of SDS-solubilized cell extracts was performed according to the manufacturers instructions. Conditioned media were centrifuged for 10 minutes at full speed in a microfuge to remove cell debris, and subsequently proteins in the supernatant were precipitated by adding trichloroacetic acid (TCA) to 10%. The precipitate was recovered by centrifugation, washed with acetone and dissolved in SDS-PAGE sample buffer and analyzed by SDS-PAGE. Alternatively to TCA precipitation, TGFalpha-H8 in conditioned medium was captured by metal-chelate chromatography using Ni-NTA agarose beads (Qiagen) in the presence of 20 mM imidazole at pH 8.0. Subsequently beads were washed with 20 mM Tris-Cl pH 8.0, 50 mM imidazole, eluted with SDS-sample buffer and analyzed by SDS-PAGE and Western blotting (see below). Typically, from a 35 mm tissue culture dish, 10% of cell extracts and 20% of tissue culture supernatant were loaded. To increase the sensitivity, for experiments shown in FIGS. 1C, 3E, 4A and 4C, five times the amount of the media fractions were loaded.
Western blotting. Proteins were analyzed by 4-20% Tris-Glycine gradient gels (Invitrogen) followed by Western blot analysis using either anti FLAG M2-HRP (1:1000; Sigma), anti HA antibody 16B12 (1:1000; Covance), anti actin antibody ab8227 (1:5000; Abcam) or affinity purified polyclonal rabbit antibody anti RHBDL4 (1:4000; see above). In order to detect the 6 kDa form of TGFalpha, proteins were transferred on PVDF membrane with 0.2 μm pore size (Millipore) and probed with 1:100 anti TGFalpha antibody 134A-2B3 (Oncogene). For the detection of phosphorylated EGFR, PVDF membranes were blocked in 3% BSA in TBS-Tween supplemented with 200 μM NaVO3. Protein was detected with anti phospho-EGFR antibody 9H2 (1:2000, Upstate). […] Bound antibodies were detected by incubation with secondary antibody (Santa Cruz Biotechnology) followed by enhanced chemiluminescence (Amersham Biosciences).

[2] = tested on: cells; test: Toxicity of DCI to cells during TGFalpha release experiment; type: cell-based; details: over several hours, similar time course as TGFalpha release
Excerpt: A central prediction of our model is that the observed BB94-insensitive TGFalpha release would be inhibited by the serine protease inhibitor DCI, a rhomboid inhibitor. […] To help the cells survive, we expressed the antiapoptotic protein Bch XL. […] Overall, these experiments strongly support that EGFR transactivation is triggered by RHBDL4-catalysed shedding of pro-TGFalpha.
Cell culture and cell-based rhomboid cleavage assay. Cells were propagated in DMEM supplemented with 10% fetal calf serum. COS-7 cells were transfected in 35 mm wells with FuGENE 6 (Roche) as described (7). In brief, 250 ng plasmid encoding the substrate (as indicated in the description of the figures), 25 ng for the rhomboid tested, 50 ng for the GRP receptor and empty plasmid to bring the total DNA to 1 μg was used. For protease titration, 2.5 ng to 250 ng plasmid coding RHBDL4 was used. […] Transfection efficiency was monitored by co-transfection of pEGFP (Invitrogen). […] Cells were solubilized in SDS-sample buffer and analyzed by SDS-PAGE. […] The precipitate was recovered by centrifugation, washed with acetone and dissolved in SDS-PAGE sample buffer and analyzed by SDS-PAGE. […] Subsequently beads were washed with 20 mM Tris-Cl pH 8.0, 50 mM imidazole, eluted with SDS-sample buffer and analyzed by SDS-PAGE and Western blotting (see below). […]

[3] = target: T1, mouse RHBDL4; test: In vitro activity assay with recombinant mouse RHBDL4 (Gurken TMD substrate); type: biochemical; design: His6 (C); made in house; host or cells: E. coli BL21-Gold(DE3) with pRARE2; Triton X-100 solubilised membrane fraction; details: Triton-X 100 solubilised E. coli membrane fraction; also run with mouse RHBDL1 and human RHBDL2
Excerpt: To produce recombinant RHBDL4, a RHBDL4-purification tag fusion protein is expressed and solubilised with detergent appropriate for in vitro activity assay. In this example, C-terminally His6-tagged mouse RHBDL4 is expressed in E. coli BL21-Gold(DE3) cells harbouring the expression vector and the extra plasmid pRARE2 (Novagen) as described for human RHBDL2 (Lemberg, 2005, EMBO vol 24 pp 464-472).
After the protein expression, cells are disrupted and membranes containing the recombinant RHBDL4 are harvested by centrifugation as had been described (Lemberg, 2005 above).
Subsequently the recombinant protein is solubilised with the detergent Triton-X 100 and tested for activity.
Radiolabelled substrate, such as the substrate TMD, is generated by cell-free in vitro translation using wheat germ extract and [35S]methionine as, had been described (Lemberg and Martoglio, 2003 Anal Biochem. vol 319 pp 327-31).
In this example a substrate corresponding to an N-terminal methionine plus residues 224 to 272 of Drosophila Gurken is used. […]
For the cleavage assay, 1-4 μl in vitro translation mix or 50-200 μg/ml recombinant substrate are added to a 40 μl-reaction containing recombinant RHBDL4 (e.g. about 1-5 μg) in 50 mM HEPES/NaOH, pH 7.4, 10% glycerol and 50 mM EDTA. Samples are incubated at 30° C. and subsequently the cleavage reaction is analyzed by SDS-PAGE as described (Lemberg, 2005 above). […]

[4] = target: RHBDL4-processed extracellular TGFalpha (post-translationally modified higher MW forms), P01135
RHBDL4-processed extracellular TGFalpha (post-translationally modified higher MW forms), P01135, sequence (P01135 whole entry, looked up, tested part not stated): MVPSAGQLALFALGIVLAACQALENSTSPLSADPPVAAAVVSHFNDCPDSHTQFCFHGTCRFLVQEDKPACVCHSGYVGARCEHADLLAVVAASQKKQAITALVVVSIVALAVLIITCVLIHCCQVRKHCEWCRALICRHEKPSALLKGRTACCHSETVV

Row | Molecule | Release of the 37 kDa form of TGFalpha in response to PMA [1] | Toxicity to cells [2] | Cleavage of Drosophila Gurken TMD substrate [3] | in vitro TACE cleavage assay (Western blot) [4]
1 | O=c1oc(Cl)c(Cl)c2ccccc12 [DCI, 3,4-Dichloroisocoumarin] | inhibited; also recorded: strong and specific inhibitory effect | toxic to cells | inhibited | –
2 | recombinant mouse TACE (R&D Systems) (protein) RAEPNPLKNTCKLLVVADHRFYKYMGRGEESTTTNYLIELIDRVDDIYRNTSWDNAGFKGYGVQIEQIRILKSPQEVKPGERHFNMAKSFPNEEKDAWDVKMLLEQFSFDIAEEASKVCLAHLFTYQDFDMGTLGLAYVGSPRANSHGGVCPKAYYNPTVKKNIYLNSGLTSTKNYGKTILTKEADLVTTHELGHNFGAEHDPDGLAECAPNEDQGGKYVMYPIAVSGDHENNKMFSNCSKQSIYKTIESKAQECFQERSNKVCGNSRVDEGEECDPGIMYLNNDTCCNSDCTLKPGVQCSDRNSPCCKNCQFETAQKKCQEAINATCKGVSYCTGNSSECPPPGDAEDDTVCLDLGKCKAGKCIPFCKREQELESCACVDTDNSCKVCCRNLSGPCVPYVDAEQKNLFLRKGKPCTVGFCDMNGKCEKRVQDVIERFWDFIDQLSINTFGKFLADN | – | – | – | Recombinant TACE cleaved the post-translationally modified higher MW forms of TGFalpha. (filled triangles), generating the mature 6 kDa form
